Patent US11060715B2, “Ex vivo proliferation of epithelial cells” (PROPAGENIX INC., priority 2015, dated 2021)

Tests used:
[1] = system: human telomerase reverse transcriptase (hTERT) gene; assay: hTERT expression by quantitative real-time PCR in bronchial epithelial cells; type: cell-based; settings: KSFM
Description: (§1) Total RNA was prepared using TRIzol® Plus RNA Purification Kit (Life Technologies, 12183-555) and PureLink® RNA Mini Kit (Life Technologies, 12183018A), following the manufacturer's instructions. One hundred nanogram total RNA was used for the determination of human telomerase reverse transcriptase (hTERT) expression using the TaqMan® RNA-to-CT™ 1-Step Kit (Life Technologies, 4392938), following the protocol provided by the supplier. hTERT primers and Taqman® probe used were as follows: forward primer, 5′-[…]-3′ (SEQ ID NO:7), reverse primer, 5′-[…]-3′ (SEQ ID NO:8) and Taqman® probe, 5′-[…]-3′ (SEQ ID NO:9).
(§2) In this example, hTERT expression in epithelial cells was assessed in the presence of an ALK5 inhibitor, a Rho kinase inhibitor (i.e., a Rho-associated protein kinase inhibitor), or both. Expression of hTERT gene was examined by quantitative real-time PCR in bronchial epithelial cells and prostate epithelial cells. The cells were treated with an ALK5 inhibitor, A83-01, or a Rho kinase inhibitor (i.e., a Rho-associated protein kinase inhibitor), Y-27632, or both inhibitors, at different passages in KSFM.

[2] = system: human telomerase reverse transcriptase (hTERT) gene; assay: hTERT expression by quantitative real-time PCR in prostate epithelial cells; type: cell-based; settings: KSFM
Description: as §1, §2
As shown in FIG. 6A and FIG. 6B, prostate epithelial cells at early passage (p2) expressed low level of hTERT, which quickly diminished at passage 3 and became non-detectible by passage 5.

[3] = system: prostate epithelial cells; assay: Plating efficiency of prostate epithelial cells in KSFM; type: cell-based, human; settings: regular tissue culture surface
Description: (§3) Epithelial cells (prostate epithelial cells and bronchial epithelial cells) were plated at 3,000-10,000 viable cells/cm^2 in tissue culture vessels, using culture medium as indicated in Examples 2 to 5 and FIGS. 1 to 17, and incubated at 37° C. with 5% CO2. The medium was changed every 2 or 3 days. Cells were sub-cultured using standard trypsinization method when they were about 70-90% confluent. Total cell number was determined using the Countess II Automated Cell Counter (Life Technologies, AMQAX1000) following manufacturer's instructions.
(§4) In this example, epithelial cell plating efficiency, i.e., number of cells that efficiently attach to the cell culture surfaces, continue to divide and grow into colonies, was examined under various conditions.
(§5) However, those few cells that did attach continued to proliferate.
Many prostate epithelial cells attached to regular tissue culture surface in the presence of both A83-01 and Y-27632 at day 2 after plating.

[4] = system: bronchial epithelial cells; assay: Plating efficiency of bronchial epithelial cells in KSFM; type: cell-based, human; settings: regular tissue culture surface
Description: as §3, §4, §5
Many bronchial epithelial cells attached to regular tissue culture surface in the presence of both A83-01 and Y-27632 at day 2 after plating.

[5] = system: prostate epithelial cells; assay: Growth (population doublings) of prostate epithelial cells in culture; type: cell-based, human
Description: as §3
(§6) A formula used for the calculation of population doublings (PD) is presented in Equation A: n=3.32*(log Y−log I)+X Equation A where n=the final PD number at end of a given subculture, Y=the cell yield at the time of harvesting, I=the cell number used as inoculum to begin that subculture, and X=the doubling level of the inoculum used to initiate the subculture being quantitated.
(§7) Prostate and bronchial epithelial cells were grown in KSFM in the presence of Rho kinase inhibitor (i.e., Rho-associated protein kinase inhibitor) Y-27632.
To examine the effects of additional in vitro and/or ex vivo growth conditions, prostate epithelial cells were grown in KSFM or PrEGM in the presence of media alone, ALK5 inhibitor A83-01, Rho kinase inhibitor (i.e., Rho-associated protein kinase inhibitor) Y-27632, or both (with or without collagen).

[6] = system: bronchial epithelial cells; assay: Growth (population doublings) of bronchial epithelial cells in culture; type: cell-based, human
Description: as §3, §6, §7
Similar to the experiment above, bronchial epithelial cells were grown in KSFM in the presence of media alone, ALK5 inhibitor A83-01, Rho kinase inhibitor (i.e., Rho-associated protein kinase inhibitor) Y-27632, or both (with or without collagen).

[7] = system: late passage prostate epithelial cells; assay: Proliferation of late passage prostate epithelial cells in KSFM plus compounds, 5 days; type: cell-based, human
Description: Stocks of certain chemicals used in the study were prepared by dissolving in DMSO to 10 mM. The chemical stocks were added to culture media to desired final concentrations, as described in Examples 2 to 5 and shown in FIGS. 1 to 17, from the time when cell culture was initiated.
In a control experiment with no added compound, there was minimum increase of cell numbers after 5 days.
In control experiment with no inhibitor added to KSFM, there was minimum increase of cell numbers after 5 days. […] As described above, these include Rho kinase inhibitors (i.e., Rho-associated protein kinase inhibitors) such as Y-27632, SR 3677, GSK 429286 and Thiazovivin; PAK1 inhibitor IPA-3; and myosin II inhibitor (i.e., non-muscle myosin II (NM II) inhibitor) Blebbistatin.

keratinocytes = assay: Expansion of keratinocytes in KSFM supplemented with combinations of components; type: cell-based, human; settings: increasing doses, KSFM with EGF, isoproterenol, A 83-01 and rHA
Description: In another experiment, keratinocytes were cultured in KSFM supplemented with various combinations of components.
In another experiment, keratinocytes were cultured in the presence of increasing doses of ROCK inhibitor (Y-27632) or Myosin II ATPase inhibitor (blebbistatin), in KSFM supplemented with EGF (0.5 ng/mL), isoproterenol (3 μM), A 83-01 (1 μM), and recombinant human serum albumin (expressed in rice; 100 μg/mL).
In another experiment, keratinocytes were cultured in the presence of increasing doses (between 10 nM to 2 μM) of retinoic acid receptors (RAR) antagonist BMS-453 or retinoic acid receptors (RAR) antagonist BMS-195614, in KSFM supplemented with EGF (0.5 ng/mL), isoproterenol (3 μM), A 83-01 (1 μM), and recombinant human serum albumin (expressed in rice; 100 μg/mL).

[8] = system: human foreskin keratinocytes (HFK) and human bronchial epithelial cells (HBEC); assay: Cell growth with increasing isoproterenol in KSFM plus A83-01 and Y-27632, six days; type: cell-based; settings: in KSFM plus 1 μM A83-01 and 5 μM Y-27632, six days
Description: In a further investigation, epithelial cell growth was assessed in the presence of a beta-adrenergic agonist (i.e., a beta-adrenergic receptor agonist). Human foreskin keratinocytes (HFK) and human bronchial epithelial cells (HBEC) were cultured in KSFM plus 1 μM A83-01 and 5 μM Y-27632, supplemented with increasing concentrations of isoproterenol (a beta-adrenergic receptor agonist that increases cytosolic cAMP levels). Cell numbers were counted after six days to calculate cell growth relative to control.

[9] = system: bronchial epithelial cells; assay: Effect of calcium content on bronchial epithelial cells in KSFM plus A83-01 and Y-27632 (morphology, TEER); type: cell-based, human
Description: Effects of culture media calcium content on cell behavior were assessed for epithelial cells cultured in KSFM plus A83-01 and Y-27632. Human bronchial epithelial cells were grown KSFM (with 90 μM CaCl2) plus A83-01 and Y-27632. These cells dispersed throughout the culture vessel (FIG. 28, left panel), and few cells formed intercellular connections, even when they were in close proximity to each other. […] Cells in the center of the patches tended to pile up, and boundaries between individual cells generally were not discernable. In certain instances, abnormal elongations formed between clusters.
In a further investigation, effects of culture media calcium content on intercellular junctions was assessed for bronchial epithelial cells cultured in KSFM plus A83-01 and Y-27632. Intercellular junctions were assessed according to paracellular flow of ions as measured by trans-epithelium electric resistance (TEER). […] Bronchial epithelial cells were plated on porous membrane support ([…], Corning, 354474) and maintained for 7 days when the membrane was covered with culture medium (submerged phase, grayed box in FIG. 29, top panel). On day 8, the medium was removed from the apical side of the membrane, and the cells were exposed to air to induce further differentiation. […]

[10] = system: human foreskin keratinocytes (HFK); assay: Differentiation of keratinocytes at high CaCl2 in KSFM+A+Y (ZO-1 staining, TEER, H&E); type: cell-based
Description: Specifically, late passage human foreskin keratinocytes (HFK) cultured in KSFM supplemented with 1 μM A83-01 and 5 μM Y-27632 (KSFM+A+Y) at low CaCl2 (90 μM) were allowed to reach confluence. The cells remained in the KSFM+A+Y conditions and the CaCl2 concentration was raised to 1.5 mM to induce differentiation.
Keratinocytes established increasing transmembrane electric resistance (TEER) over time in air-liquid-interface differentiation, in the presence of high concentration (1.5 mM) of CaCl2 in KSFM plus A 83-01 and Y-27632. Specifically, human foreskin keratinocytes (HFK) previously cultured in KSFM supplemented with 1 μM A83-01 and 5 μM Y-27632 (KSFM+A+Y) at low CaCl2 (90 μM) were plated on a porous membrane support ([…], Corning, 354474) and maintained for 14 days. The cells were covered by culture medium (KSFM+A+Y and 1.5 mM of CaCl2) for the first day (submerged phase, grayed box in FIG. 34) and exposed to air for the remaining days.
Keratinocytes formed an epidermal-like structure over time in air-liquid-interface differentiation, in the presence of high concentration (1.5 mM) of CaCl2 in KSFM plus A 83-01 and Y-27632. Specifically, human foreskin keratinocytes (HFK) previously cultured in KSFM supplemented with 1 μM A83-01 and 5 μM Y-27632 (KSFM+A+Y) at low CaCl2 (90 μM) were plated on a porous membrane support ([…], Corning, 354474) and maintained for 14 days. […]

[11] = KSFM, compound used alone, late passage

## C[C@@H](N)[C@H]1CC[C@H](C(=O)Nc2ccncc2)CC1.Cl.Cl [Y-27632, (R)-(+)-trans-4-(1-Aminoethyl)-N-(4-Pyridyl)cyclohexanecarboxamide dihydrochloride]
[1]; early passage (p3)
  hTERT expression: slightly induced
[1]; late passage (p6)
  hTERT expression: non-detectible
[2]; early passage (p2)
  hTERT expression: induced
[2]; late passage (p5)
  hTERT expression: non-detectible
[3]
  plating efficiency in the presence of A83-01: ameliorated the low plating efficiency
[4]
  plating efficiency in the presence of A83-01: ameliorated the low plating efficiency
[5]; KSFM
  population doubling (PD) reached before cells entered senescence: > 20
[5]; [11]
  proliferation: did not promote the proliferation
[5]; added to KSFM
  total population doublings: slightly increased the total population doublings
[6]; [11]
  proliferation: did not promote the proliferation
[6]; added to KSFM
  total population doublings: slightly increased the total population doublings
[7]; KSFM plus compound alone (FIG. 17)
  cell proliferation after 5 days: slight increase of cell proliferation
[7]; KSFM plus individual compound alone, 5 μM, 1 μM and 0.2 μM (FIG. 16)
  total cell number after 5 days: slight increase of total cell numbers
[7]; used together with A83-01 in KSFM, 5 μM, 1 μM and 0.2 μM (FIG. 17)
  cell proliferation after 5 days: synergistically increased
keratinocytes
  cell growth rate: No significant increase of cell growth rate

## CC(C)NCC(O)c1ccc(O)c(O)c1 (centres unmarked) [isoproterenol]
[8]
  cell growth relative to control: further increased epithelial cells growth

## [Ca+2].[Cl-].[Cl-] [CaCl2]
[9]; 1 mM CaCl2 in KSFM plus A83-01 and Y-27632
  cell behavior (morphology): aggregate into tight clusters
[9]; high concentration (1 mM) in KSFM plus A 83-01 and Y-27632
  trans-epithelium electric resistance (TEER): increasing TEER
[10]; 1.5 mM CaCl2 in KSFM+A+Y, air-liquid-interface, day 14
  epidermal-like structure formation (H&E): differentiated into multi-layer structures
[10]; CaCl2 raised to 1.5 mM in KSFM+A+Y
  tight junction formation (ZO-1 staining): Tight junction formation was observed
